# Assays:
# [1] = biological target: T1, α1D adrenoceptor (aorta) (Rattus norvegicus, UniProt P23944); experiment: In vitro functional study, antagonism of norepinephrine-induced contraction of aorta; type: biochemical; details: tested compound at 0.1, 1 and 10 mM, read-out: α Adrenoceptor Subtype (pKB) α1D (converted)
# T1 construct: Isolated tissues were mounted in organ bath containing Krebs Henseleit buffer; from tissue; host or cells: isolated aorta of male wistar rats
# T1 sequence (P23944 1-561): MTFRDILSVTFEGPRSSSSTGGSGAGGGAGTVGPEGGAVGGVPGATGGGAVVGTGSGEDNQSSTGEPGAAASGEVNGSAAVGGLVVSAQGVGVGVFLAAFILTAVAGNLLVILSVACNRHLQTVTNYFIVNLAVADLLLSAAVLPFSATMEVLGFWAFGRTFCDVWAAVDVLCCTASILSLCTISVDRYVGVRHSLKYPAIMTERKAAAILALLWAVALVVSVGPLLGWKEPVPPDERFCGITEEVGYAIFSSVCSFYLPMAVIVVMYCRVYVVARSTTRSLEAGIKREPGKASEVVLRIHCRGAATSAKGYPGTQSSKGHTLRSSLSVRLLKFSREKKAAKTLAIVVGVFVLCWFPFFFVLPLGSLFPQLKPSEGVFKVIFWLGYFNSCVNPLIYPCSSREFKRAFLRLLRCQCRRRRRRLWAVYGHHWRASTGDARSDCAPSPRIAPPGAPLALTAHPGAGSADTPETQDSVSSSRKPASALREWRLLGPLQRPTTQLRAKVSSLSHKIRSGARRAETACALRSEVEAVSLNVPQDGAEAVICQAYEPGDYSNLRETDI
# Excerpt: In order to study selectivity of action of these compounds towards different α-adrenoceptor subtypes, the ability of these compounds to antagonise α1-adrenoceptor agonist induced contractile response on aorta (α1Dprostate (α1A and spleen (α1B was studied. Aorta and spleen tissues were isolated from urethane anaesthetised (1.5 gm/kg) male wistar rats. Isolated tissues were mounted in organ bath containing Krebs Henseleit buffer of following composition (mM): NaCl 118; KCl 4.7; CaCl2 2.5; MgSO4. 7H2O 1.2; NaHCO3 25; KH2PO41.2; glucose 11.5. Buffer was maintained at 37° C. and aereated with a mixture of 95% O2 and 5% CO2. A resting tension of 2 g (aorta) or 1 g (spleen and prostate)was applied to tissues. Contractile response was monitored using a force displacement transducer and recorded on chart recorders. Tissues were allowed to equilibrate for 2 hours. At the end of equilibration period, concentration response curves to norepinephrine (aorta) and phenylepinephrine (spleen and prostate) were obtained in absence and presence of tested compound (at concentration of 0.1,1 and 10 mM). Antagonist affinity was calculated and expressed as pKB vales in Table II.
# [2] = system: phenylephrine response on mean arterial pressure (MAP) and intraurethral pressure (IUP); experiment: In vivo uroselectivity study in conscious beagle dogs; details: for Area Under Curve IUP / Area Under Curve MAP: percent change of phenylephrine (16 μg/kg i.v.) response, 0.5-24 hours
# Excerpt: In order to assess the uroselectivity in vivo, the effects of these compounds were studied on mean arterial pressure (MAP) and intraurethral pressure (IUP) in conscious beagle dogs as per the method of Brune et. al. (Pharmacol 1996, 53:356-368). Briefly, male dogs were instrumented for chronic continuous measurement of arterial blood pressure by implanting a telemetry transmitter (TL11M2-D70-PCT, Data Sci. International, St. Paul, Minn. USA) into the femoral artery, two weeks prior to the study. During the recovery period, the animal was acclimatized to stay in the sling restraint. On the day of testing, overnight fasted animal was placed in the sling restraint. A Swan-Ganz. Balloon tipped catheter was introduced into the urethra at the level of prostate and the balloon was inflated (Brune. et. al. 1996). After recording the base line readings, effect of 16 μg/kg, phenylephrine (i.v.) on MAP and IUP was recorded. The response of phenylephrine to MAP and IUP were recorded at 0.5, 1, 2, 3, 4, 6, 9 and 24 hours after the oral administration of vehicle or the test drug. The changes in MAP was recorded on line using Dataquest Software (Data Sci. International. St. Paul, Minn. USA) and IUP was recorded on a Grass Polygraph (Model 7, Grass Instruments, USA). The change in phenylephrine response on MAP and IUP administration after the test drug administration was calculated as percent change of that of control values. Area under curve was calculated and the ratio of the values for MAP and IUP was used for calculating the uroselectivity (Table III)
Compound,Kb [1] [nM],Uroselectivity Ratio IUP/MAP ([2]; 100 μg/kg p.o.),Area Under Curve IUP ([2]; 100 μg/kg p.o.),Area Under Curve MAP ([2]; 100 μg/kg p.o.),Uroselectivity Ratio IUP/MAP ([2]; 10 μg/kg p.o.),Area Under Curve IUP ([2]; 10 μg/kg p.o.),Area Under Curve MAP ([2]; 10 μg/kg p.o.),Uroselectivity Ratio IUP/MAP ([2]; 3 μg/kg p.o.),Area Under Curve IUP ([2]; 3 μg/kg p.o.),Area Under Curve MAP ([2]; 3 μg/kg p.o.)
"COc1ccccc1N1CCN(CCCN2C(=O)C3CC=CCC3C2=O)CC1.Cl (stereo not shown) [Compound 01, 2-[3-{4-(2-Methoxyphenyl)piperazin-1-yl}propyl]-3a,4,7,7a-tetrahydro-1H-isoindole-1,3(2H)-dione hydrochloride]",2.29,5.54,514,93,–,–,–,–,–,–
"CCOc1ccccc1N1CCN(CCCN2C(=O)C3CC=CCC3C2=O)CC1.Cl (stereo not shown) [Compound 11, 2-[3-{4-(2-Ethoxyphenyl)piperazin-1-yl}propyl]-3a,4,7,7a-tetrahydro-1H-isoindole-1,3(2H)-dione hydrochloride]",1.74,–,–,–,66,661,10,–,–,–
"CC(C)Oc1ccccc1N1CCN(CCCN2C(=O)C3CC=CCC3C2=O)CC1.Cl (stereo not shown) [Compound 23, 2-[3-{4-(2-Isopropoxyphenyl)piperazin-1-yl}propyl]-3a,4,7,7a-tetrahydro-1H-isoindole-1,3(2H)-dione hydrochloride]",0.123,–,–,–,–,–,–,4,790,197
"CCCOc1ccccc1N1CCN(CCCN2C(=O)C3CC=CCC3C2=O)CC1.Cl (stereo not shown) [Compound 24, 2-[3-{4-(2-Propoxyphenyl)piperazin-1-yl}propyl]-3a,4,7,7a-tetrahydro-1H-isoindole-1,3(2H)-dione hydrochloride]",0.537,–,–,–,–,–,–,7.6,522,68

# From patent US6914064B2, “1,4-Disubstituted piperazine derivatives useful as uro-selective α1-adrenoceptor blockers” (Ranbaxy Laboratories Limited, priority 2000, dated 2005)
